The values below come from US20260200928A1, “THERAPEUTIC COMPOUNDS” (Sanofi, priority 2022, published 2026).

The experiment concerns the target T1, human IL-17A (Homo sapiens, UniProt Q16552).
T1 construct: purchased R&D Systems 7955-IL/CF
T1 sequence (Q16552 24-155): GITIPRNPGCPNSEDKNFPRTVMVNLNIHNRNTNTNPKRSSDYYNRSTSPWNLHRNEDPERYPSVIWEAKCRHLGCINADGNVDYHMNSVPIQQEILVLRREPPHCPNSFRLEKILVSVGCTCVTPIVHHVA
Kind of experiment: IL-17A AlphaLISA competition assay (block of IL-17A binding to its receptor IL-17RA). As to conditions: mean IC50 (n≥2), block of IL-17A binding to IL-17RA. A digest of the protocol:
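Bead-based AlphaLISA competition in PBS with 0.05% Tween-20 and 0.1% BSA: compound first meets human IL-17A (7.5 nM stock) for 30 min, then IL-17RA/Fc (5 nM stock) for 90 min, all at room temperature, before acceptor/donor bead capture. IC50 fitted 4-parameter, DMSO and 4 μM reference inhibitor as controls; at least duplicate.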
On the technique in general: Bead proximity is the source of the signal in Alpha formats.

On to `O=C(N[C@H](C(=O)Nc1cc(CN2C[C@@H](C(F)(F)F)NC2=O)ccn1)C1CCC(F)(F)CC1)OCc1ccccc1` (stereo in doubt) [Example 10, Benzyl ((S)-1-(4,4-difluorocyclohexyl)-2-oxo-2-((4-(((S)-2-oxo-4-(trifluoromethyl)imidazolidin-1-yl)methyl)pyridin-2-yl)amino)ethyl)carbamate], for which the IC50 amounted to 273 nM. As for `CCC[C@H](c1ccnc(NC(=O)C(NC(=O)c2nocc2CC)C2CCC(F)(F)CC2)c1)N1C[C@@H](C(F)(F)F)NC1=O` (stereo in doubt) [Example 158, N—((S)-1-(4,4-difluorocyclohexyl)-2-oxo-2-((4-((R)-1-((S)-2-oxo-4-(trifluoromethyl)imidazolidin-1-yl)butyl)pyridin-2-yl)amino)ethyl)-4-ethylisoxazole-3-carboxamide], the IC50 was found to be 18 nM. The same measure for `CCc1conc1C(=O)NC(C(=O)Nc1cc([C@@H](C(C)C)N2C[C@@H](C(F)(F)F)NC2=O)ccn1)C1CCC(F)(F)CC1` (stereo in doubt) [Example 159, N—((S)-1-(4,4-difluorocyclohexyl)-2-((4-((R)-2-methyl-1-((S)-2-oxo-4-(trifluoromethyl)imidazolidin-1-yl)propyl)pyridin-2-yl)amino)-2-oxoethyl)-4-ethylisoxazole-3-carboxamide]: 30 nM; for `Cn1nccc1C(=O)NC(C(=O)Nc1cc(C(C)(C)N2C[C@@H](C(F)(F)F)NC2=O)ccn1)C1CCC(F)(F)CC1` (stereo in doubt) [Example 172, N—((S)-1-(4,4-difluorocyclohexyl)-2-oxo-2-((4-(2-((S)-2-oxo-4-(trifluoro-methyl)imidazolidin-1-yl)propan-2-yl)pyridin-2-yl)amino)ethyl)-1-methyl-1H-pyrazole-5-carboxamide]: 1170 nM; for `CCc1oncc1C(=O)NC(C(=O)Nc1cc([C@@H](COC)N2CC(F)(F)CNC2=O)ccn1)C1CCC(F)(F)CC1` (stereo in doubt) [Example 176, N—((S)-2-((4-((S)-1-(5,5-difluoro-2-oxotetrahydropyrimidin-1(2H)-yl)-2-methoxyethyl)pyridin-2-yl)amino)-1-(4,4-difluorocyclohexyl)-2-oxoethyl)-5-ethylisoxazole-4-carboxamide]: 57 nM. For the molecule `CCc1nonc1C(=O)NC(C(=O)Nc1cc(C(CC)NC(=O)CCC(F)(F)F)ccn1)C1CCC(F)(F)CC1` (stereo in doubt) [Example 207, N-((1S)-1-(4,4-difluorocyclohexyl)-2-oxo-2-((4-(1-(4,4,4-trifluorobutan-amido)propyl)pyridin-2-yl)amino)ethyl)-4-ethyl-1,2,5-oxadiazole-3-carboxamide], the IC50 was 350 nM. `CCc1conc1C(=O)NC(C(=O)Nc1cc([C@@H](CC)N2C[C@@H](C(F)(F)F)NC2=O)ccn1)C1CCC(F)(F)CC1` (stereo in doubt) [Example 208, N—((S)-1-(4,4-difluorocyclohexyl)-2-oxo-2-((4-((R)-1-((S)-2-oxo-4-(trifluoromethyl)imidazolidin-1-yl)propyl)pyridin-2-yl)amino)ethyl)-4-ethylisoxazole-3-carboxamide] had an IC50 of 31 nM.

Molecule `CCc1nocc1C(=O)NC(C(=O)Nc1cc(CC2=C[C@@H](C(F)(F)F)NC2=O)ccn1)C1CCC(F)(F)CC1` (stereo in doubt) [Example 216, N-((1S)-1-(4,4-difluorocyclohexyl)-2-oxo-2-((4-((2-oxo-5-(trifluoromethyl)-2,5-dihydro-1H-pyrrol-3-yl)methyl)pyridin-2-yl)amino)ethyl)-3-ethylisoxazole-4-carboxamide] gave a 50% inhibitory concentration (IC50) of 137 nM. Molecule `CCc1ncoc1C(=O)NC(C(=O)Nc1cc(C[C@H]2C[C@@H](C(F)(F)F)NC2=O)ccn1)C1CCC(F)(F)CC1` (stereo in doubt) [Example 217, N—((S)-1-(4,4-difluorocyclohexyl)-2-oxo-2-((4-(((3S,5S)-2-oxo-5-(trifluoro-methyl)pyrrolidin-3-yl)methyl)pyridin-2-yl)amino)ethyl)-4-ethyloxazole-5-carboxamide] yielded a 50% inhibitory concentration (IC50) of 465 nM. Consider `CCn1nccc1C(=O)NC(C(=O)Nc1cc(C[C@H]2C[C@@H](C(F)(F)F)NC2=O)ccn1)C(C1CC1)C1CC1` (stereo in doubt) [Example 230, N—((S)-1,1-dicyclopropyl-3-oxo-3-((4-(((3S,5S)-2-oxo-5-(trifluoromethyl)-pyrrolidin-3-yl)methyl)pyridin-2-yl)amino)propan-2-yl)-1-ethyl-1H-pyrazole-5-carboxamide], for which the IC50 came to 96 nM. As for `CC(C)(C)OC(=O)N[C@H](C(=O)Nc1cc(CN2C[C@@H](C(F)(F)F)NC2=O)ccn1)[C@H]1CC[C@H](C)CC1` [Example 1, Tert-butyl ((S)-1-((1r,4S)-4-methylcyclohexyl)-2-oxo-2-((4-(((S)-2-oxo-4-(trifluoro-methyl)imidazolidin-1-yl)methyl)pyridin-2-yl)amino)ethyl)carbamate], the figure is 148 nM. As for `C[C@H]1CC[C@H]([C@H](NC(=O)c2nonc2C2CC2)C(=O)Nc2cc(CN3C[C@@H](C(F)(F)F)NC3=O)ccn2)CC1` [Example 2, 4-Cyclopropyl-N—((S)-1-((1r,4S)-4-methylcyclohexyl)-2-oxo-2-((4-(((S)-2-oxo-4-(trifluoromethyl)imidazolidin-1-yl)methyl)pyridin-2-yl)amino)ethyl)-1,2,5-oxadiazole-3-carboxamide], the IC50 was found to be 25 nM. `Cn1nccc1C(=O)N[C@H](C(=O)Nc1cc(CN2C[C@@H](C(F)(F)F)NC2=O)ccn1)[C@H]1CC[C@H](C)CC1` [Example 3, 1-Methyl-N—((S)-1-((1r,4S)-4-methylcyclohexyl)-2-oxo-2-((4-(((S)-2-oxo-4-(trifluoromethyl)imidazolidin-1-yl)methyl)pyridin-2-yl)amino)ethyl)-1H-pyrazole-5-carboxamide] yielded an IC50 of 85 nM.

`CC(C)n1nccc1C(=O)N[C@@H](C(=O)Nc1cc(CN2C[C@H](C(F)(F)F)NC2=O)ccn1)[C@H]1CC[C@H](C)CC1` [Example 4, 1-isopropyl-N—((S)-1-((1r,4S)-4-methylcyclohexyl)-2-oxo-2-((4-(((S)-2-oxo-4-(trifluoromethyl)imidazolidin-1-yl)methyl)pyridin-2-yl)amino)ethyl)-1H-pyrazole-5-carboxamide] yielded an IC50 of 35 nM. The same measure for `C[C@H]1CC[C@H]([C@@H](NC(=O)OCc2ccccc2)C(=O)Nc2cc(CN3C[C@H](C(F)(F)F)NC3=O)ccn2)CC1` [Example 5, Benzyl ((S)-1-((1r,4S)-4-methylcyclohexyl)-2-oxo-2-((4-(((S)-2-oxo-4-(trifluoromethyl)imidazolidin-1-yl)methyl)pyridin-2-yl)amino)ethyl)carbamate]: 179 nM; for `CC(C)(C)OC(=O)N1CCn2c(ccc2C(=O)N[C@H](C(=O)Nc2cc(CN3C[C@@H](C(F)(F)F)NC3=O)ccn2)[C@H]2CC[C@H](C)CC2)C1` [Example 7, Tert-butyl 6-(((S)-1-((1r,4S)-4-methylcyclohexyl)-2-oxo-2-((4-(((S)-2-oxo-4-(trifluoromethyl)imidazolidin-1-yl)methyl)pyridin-2-yl)amino)ethyl)-carbamoyl)-3,4-dihydropyrrolo[1,2-a]pyrazine-2(1H)-carboxylate]: 407 nM; for `O=C(N[C@H](C(=O)Nc1cc(CN2C[C@@H](C(F)(F)F)NC2=O)ccn1)C1CCC(F)(F)CC1)c1nonc1C1CC1` [Example 8, 4-cyclopropyl-N-((S)-1-(4,4-difluorocyclohexyl)-2-oxo-2-((4-(((S)-2-oxo-4-(trifluoromethyl)imidazolidin-1-yl)methyl)pyridin-2-yl)amino)ethyl)-1,2,5-oxadiazole-3-carboxamide]: 141 nM.

For the molecule `Cn1nccc1C(=O)N[C@H](C(=O)Nc1cc(CN2C[C@@H](C(F)(F)F)NC2=O)ccn1)C1CCC(F)(F)CC1` [Example 9, N-((S)-1-(4,4-difluorocyclohexyl)-2-oxo-2-((4-(((S)-2-oxo-4-(trifluoromethyl)imidazolidin-1-yl)methyl)pyridin-2-yl)amino)ethyl)-1-methyl-1H-pyrazole-5-carboxamide], the 50% inhibitory concentration (IC50) was 422 nM. Turning to `CC(C)(C)OC(=O)N1CCn2c(ccc2C(=O)N[C@H](C(=O)Nc2cc(CN3C[C@@H](C(F)(F)F)NC3=O)ccn2)C2CCC(F)(F)CC2)C1` [Example 11, Tert-butyl 6-(((S)-1-(4,4-difluorocyclohexyl)-2-oxo-2-((4-(((S)-2-oxo-4-(trifluoromethyl)imidazolidin-1-yl)methyl)pyridin-2-yl)amino)ethyl)carbamoyl)-3,4-dihydropyrrolo[1,2-a]pyrazine-2(1H)-carboxylate], the IC50 was 359 nM. As for `CC(C)n1nccc1C(=O)N[C@H](C(=O)Nc1cc(CN2C[C@@H](C(F)(F)F)NC2=O)ccn1)C1CCC(F)(F)CC1` [Example 12, N-((S)-1-(4,4-difluorocyclohexyl)-2-oxo-2-((4-(((S)-2-oxo-4-(trifluoromethyl)imidazolidin-1-yl)methyl)pyridin-2-yl)amino)ethyl)-1-isopropyl-1H-pyrazole-5-carboxamide], the figure is 106 nM; as for `CCc1nocc1C(=O)N[C@H](C(=O)Nc1cc(CN2C[C@@H](C(F)(F)F)NC2=O)ccn1)C1CCC(F)(F)CC1` [Example 13, N-((S)-1-(4,4-difluorocyclohexyl)-2-oxo-2-((4-(((S)-2-oxo-4-(trifluoromethyl)imidazolidin-1-yl)methyl)pyridin-2-yl)amino)ethyl)-3-ethylisoxazole-4-carboxamide], 122 nM.

Broadly, the IC50 is the concentration at which inhibition is half-maximal. Lower therefore signals greater potency.
